Series [1] in a line: Gravimetric vapour sorption (GVS). The note with it: 0-90% RH cycle, 25° C. It counts as physicochemical. Here is the method: The sample size was ca. 10-25 mg. […] The sample was loaded and unloaded at room humidity and temperature (ca. 40% RH, 25° C.) and analysed afterwards by XRPD (using a Bruker AXS C2 GADDS system).
The nature of series [2]: Salt stability at 40° C. 75% RH followed by XRPD. In kind it is physicochemical. The note with it: 40° C. and 75% RH over the period of 1-2 month.
Method: Approximately 15 mg of samples for the stability study were gently ground by marble mortar and transferred to a Petri dish in a thin layer. Samples were then placed in sealed containers containing saturated NaCl solution with an excess of undissolved NaCl. […] Samples were analysed by X-ray powder diffraction (XRPD) in regular intervals. Samples for XRPD data collection were loaded into crystallographic capillary (from Hampton Research, made of Quartz, diameter=0.4 mm). […] 2D Images were collected while spinning φ axis with a detector to crystal distance of 250 mm. Data collection was controlled by CrystalClear software and 2D images were converted to 1D plot (2θ vs. Intensity) by Datasqueeze (intensity averaged over the azimuthal angle 0<χ<360° for 2θ range 3-30° in 0.01° steps).
The nature of series [3]: physchem. The note with it: water, thermodynamic from solid.

The results in this text go back to patent US8110573B2, “Pyrazole compounds that modulate the activity of CDK, GSK and aurora kinases” (Astex Therapeutics Limited, priority 2004, dated 2012).

Counter-ions that a name gives are not always drawn.

On to `C[C@H](O)C(=O)O.O=C(Nc1c[nH]nc1-c1nc2cc(CN3CCOCC3)ccc2[nH]1)NC1CC1` [L-lactate salt, 1-cyclopropyl-3-[3-(5-morpholin-4-ylmethyl-1H-benzoimidazol-2-yl)-1H-pyrazol-4-yl]-urea, L-lactate salt], for which the “hygroscopic behaviour (GVS isotherm)” value in series [1] is “does not display hygroscopic behaviour and does not form a hydrate”. In series [2], the “change of XRPD pattern on storage” value is “do not change”.

In series [3], `O=C(Nc1c[nH]nc1-c1nc2cc(CN3CCOCC3)ccc2[nH]1)NC1CC1` [Hydrochloride, 1-cyclopropyl-3-[3-(5-morpholin-4-ylmethyl-1H-benzoimidazol-2-yl)-1H-pyrazol-4-yl]-urea] came in with a solubility at 16 h of less than 25 mg/mL.

The term solubility denotes how much of the substance goes into solution per volume. Read a high solubility as much dissolved substance.
